Values joined by “and” are separate entries in the source; they are usually repeats but may differ in a detail not shown here. Identical values can stand only once. Counter-ions that a name gives are not always drawn. Square brackets hold non-standard residues; d marks the D form. Peptide text beside a SMILES is read from it. * marks the point of attachment. dPhg = N[C@@H](C(=O)O)c1ccccc1; Boc = CC(C)(C)OC(=O)*
Tests used:
bovine thrombin [1] = target: T1, bovine thrombin (Bos taurus, UniProt P00735); test: Inhibition of thrombin amidase activity (chromogenic substrate), bovine thrombin; assay type: biochemical; conditions: apparent equilibrium constant inhibitor-thrombin, mean over a range of concentrations
T1 construct: 25 μl of bovine thrombin solution (0.21 mg/ml of thrombostat powder); purchased thrombostat powder
Description: The data in the table were obtained in an assay in which thrombin hydrolyzes the chromogenic substrate, N-benzoyl-D-phenylalanyl-L-valyl-L-arginyl-p-nitroanilide.
The assay was carried out in 50 μl buffer (0.03M Tris, 0.15M NaCl, pH 7.4) with 25 μl of bovine thrombin solution (0.21 mg/ml of thrombostat powder in 0.06M Tris, 0.3M NaCl, pH 7.4) and 150 μl of an aqueous solution of the chromogenic substrate at a concentration of 0.25 mg/ml. Solutions of test compound (25 μl) at various concentrations were added. […] Standard curves were constructed by plotting free thrombin concentration against hydrolysis rate. […] The amount of free inhibitor in each assay was calculated by subtracting the number of moles of bound thrombin from the number of moles of added inhibitor (test compound).
(§1) Kass was calculated for a range of concentrations of compounds and the mean value is reported in units of liter per mole.

bovine thrombin [2] = target: T1, bovine thrombin; test: Plasma coagulation assay: thrombin time; assay type: biochemical
Description: (§2) The anticoagulant activity of the compounds of the invention has been determined in standard tests. The following Table 2 presents the data obtained with representative compounds of the invention in tests used to determine prothrombin time, thrombin time and activated partial thromboplastin time (APTT). The numerical values in the table are the concentrations of the test compounds (ng/ml) required to prolong coagulation by 2-fold in the three tests. The thrombin time evaluation was carried out in plasma and separately determined in a buffer system at pH 7.5.
(§3) The data presented in Table 2 were obtained using a CoaScreener instrument from Tecan, Inc. in the assay protocols listed below.
50 μl bovine thrombin (2 NIH

bovine thrombin [3] = target: T1, bovine thrombin; test: Thrombin time in buffer (fibrinogen instead of plasma); assay type: biochemical; conditions: Buffer (pH 7.5)
Description: as §2, §3
In the Thrombin Time determined in pH 7.4 buffer fibrinogen was used instead of plasma.

[4] = test system: plasma coagulation (Actin, CaCl2); test: Plasma coagulation assay: APTT (activated partial thromboplastin time); assay type: biochemical
Description: as §2, §3

[5] = test system: arterial thrombosis in the carotid artery; test: Ferric chloride induced arterial thrombosis in the carotid artery of the rat; assay type: in vivo; conditions: infusion from 15 min before to 60 min after FeCl3, NA = Not active at 4 mg/kg/h or at 7 mg/kg/h, the highest doses tested
Description: The antithrombotic activity of representative compounds of the invention was determined in in vivo tests carried out in the rat. The test employed induced arterial thrombosis in the carotid artery of the rat and measured the infusion dose of test compound required to maintain blood flow for fifty minutes past the time of occlusion. The test was performed as follows.
Arterial thrombosis was induced in the rat by injury of the carotid artery. Topical application of a ferric chloride solution was used to injure the vessel. Male Sprague-Dawley rats (375-450 g) were anesthetized with xylazine (20 mg/kg, s.c.) followed by ketamine HCl (100 mg/kg, s.c.). Animals were laid on a water blanket in which the circulated water was maintained at 37° C. The carotid artery was approached through a midline cervical incision. Careful blunt dissection was used to expose and isolate the vessel from the carotid sheath. A silk suture was pulled underneath the artery to lift the vessel to provide clearance to insert a thermocouple underneath it. […] Small forceps were used to dip discs (3 mm dia) of Whatman No. 1 filter paper into a FeCl3 solution (35%). The discs were cut to equal size using sharpened stainless steel tubing (3 mm i.d.) chucked in a drill press. A saturated disc was placed on each carotid artery above the thermocouple. The time between FeCl3 application and the time at which temperature decreased abruptly was recorded as time to occlusion (TTO) of the vessel. The average time required for both vessels to occlude was used to represent TTO for each animal.
Test compounds were dissolved in isotonic saline. […]
The association between vessel occlusion and the abrupt temperature decrease was established by simultaneously recording the temperature and blood flow on the same recorder. […] Baseline temperature and flow velocity (determined with a Directional Pulsed Doppler Flowmeter, Model 545-C, University of Iowa Bioengineering) were recorded before application of 35% ferric chloride. […]

[6] = test system: plasma coagulation (thromboplastin); test: Plasma coagulation assay: prothrombin time; assay type: biochemical
Description: The numerical values in the table are the concentrations of the test compounds (ng/ml) required to prolong coagulation by 2-fold in the three tests. The thrombin time evaluation was carried out in plasma and separately determined in a buffer system at pH 7.5.
as §3
50 μl thromboplastin (Dade)

human thrombin = target: T2, human thrombin (Homo sapiens, UniProt P00734); test: Inhibition of thrombin amidase activity (chromogenic substrate), human thrombin; assay type: biochemical; conditions: human thrombin (footnote 2)
T2 construct: purchased Inzyme Research Laboratories of South Bend, Ind
Description: The compounds provided by the invention (formula 1) inhibit the action of thrombin in man and animals. […] The following Table 1 lists the apparent equilibrium constant (Kass) for interaction between the test compound (inhibitor) and thrombin. The data in the table were obtained in an assay in which thrombin hydrolyzes the chromogenic substrate, N-benzoyl-D-phenylalanyl-L-valyl-L-arginyl-p-nitroanilide.
The assay was carried out in 50 μl buffer (0.03M Tris, 0.15M NaCl, pH 7.4) with 25 μl of bovine thrombin solution (0.21 mg/ml of thrombostat powder in 0.06M Tris, 0.3M NaCl, pH 7.4) and 150 μl of an aqueous solution of the chromogenic substrate at a concentration of 0.25 mg/ml. Solutions of test compound (25 μl) at various concentrations were added. Rates of hydrolysis of the substrate were measured by monitoring the reactions at 405 nm for the release of p-nitroaniline. […] The bound thrombin (bound to test compound) was calculated by subtracting the amount of free thrombin observed in each assay from the known initial amount of thrombin used in the assay. The amount of free inhibitor in each assay was calculated by subtracting the number of moles of bound thrombin from the number of moles of added inhibitor (test compound). […]
as §1

Row | Compound | Thrombin Amidase Kass × 10^6 (bovine thrombin [1]) | Thrombin Time: concentration required to prolong coagulation by 2fold (bovine thrombin [2]) | Thrombin Time: concentration required to prolong coagulation by 2fold (bovine thrombin [3]) | APTT: concentration required to prolong coagulation by 2fold [4] | ED50: infusion dose required to maintain blood flow for 50 min [5] | Prothrombin Time: concentration required to prolong coagulation by 2fold [6] | Thrombin Amidase Kass × 10^6 (bovine thrombin [1]; diacetate salt) | Thrombin Amidase Kass × 10^6 (human thrombin)
1 | CC(=O)O.CC(=O)O.CC(C)(C)OC(=O)N[C@@H](C(=O)N1CCC[C@H]1C(=O)N[C@H](C=O)CCCNC(=N)N)c1cccc2ccccc12 [Boc-D-1-naphthylglycyl, N-Boc-D-1-naphthylglycyl-Pro-Arg-H diacetate] | 52 × 10^6 1/mole | 230 ng/mL | 105 ng/mL | 3100 ng/mL | 6.4 mg/kg/h | 1225 ng/mL |  | 
2 | CC(C)(C)OC(=O)N[C@@H](C(=O)N1CCC[C@H]1C(=O)N[C@H](C=O)CCCNC(=N)N)c1ccccc1 [Boc-D-phenylglycyl, N-(t-Butyloxycarbonyl)-D-phenylglycyl-L-Prolyl-L-Arginine aldehyde (Boc-D-Phg-Pro-Arg-H) diacetate salt] (Boc-[dPhg]-Pro-Arg-aldehyde) |  | 110 ng/mL | 118 ng/mL | 1169 ng/mL | 2.9 mg/kg/h | 667 ng/mL | 88 × 10^6 1/mole and 73 × 10^6 1/mole | 
3 | N=C(N)NCCCC(C=O)NC(=O)C1CCCN1C(=O)C1CC2CCCCC2CN1 [D-3-(4aS, 8aS)-Piq-(L)-Pro-(L)-Arg-H] |  |  |  |  |  |  |  | 56 × 10^6 1/mole
4 | D-3 -(4aR, 8aR)-Piq-(L)-Pro-(L)-Arg-H |  |  |  |  |  |  |  | 214 × 10^6 1/mole

— US5430023A, “Tripeptide antithrombotic agents” (Eli Lilly and Company, priority 1993, dated 1995)
